In the supplement of paper PMC10307832:

What was measured:
Test in all cases: relative viability (nuclei count vs DMSO), 5 days (fraction); higher = more cells survive
[1] = compound: CC1=C(CC(=O)O)c2cc(F)ccc2/C1=C\c1ccc([S+](C)[O-])cc1 [Sulindac] + CS(=O)(=O)N1CCN(Cc2cc3nc(-c4cccc5[nH]ncc45)nc(N4CCOCC4)c3s2)CC1 [Pictilisib] (partner 1 µM)
How it was run: (§1)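 Lung cancer cell lines were seeded in 1536-well plates and dosed by pin tool the next day, with either a single drug or a fixed anchor-drug dose combined with five library-drug doses (not always all listed) spaced in √10 steps. Five days later, one step fixed the cells and stained their nuclei (final 0.05% Triton X-100, 1% formaldehyde, 1 ug/ml Hoechst), and nuclei were counted on 4× images. Relative viability is the nuclei count in treated wells divided by the count in vehicle wells, and each value is the median of duplicate plates.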

[2] = compound: O=c1[nH]cc(F)c(=O)[nH]1 [5-Fluorouracil] + N=C(N)NC(=N)NCCc1ccccc1 [Phenformin] (partner 250 µM)
How it was run: as §1

[3] = compound: CN[C@@H]1C[C@H]2O[C@@](C)([C@@H]1OC)n1c3ccccc3c3c4c(c5c6ccccc6n2c5c31)C(=O)NC4 [Staurosporine] + Cc1nc(NC(=O)N2CCC[C@H]2C(N)=O)sc1-c1ccnc(C(C)(C)C(F)(F)F)c1 [Alpelisib] (partner 2 µM)
How it was run: as §1

[4] = compound: CC1=C(CC(=O)O)c2cc(F)ccc2/C1=C\c1ccc([S+](C)[O-])cc1 [Sulindac] + CC(=O)Nc1cccc(-n2c(=O)n(C3CC3)c(=O)c3c(Nc4ccc(I)cc4F)n(C)c(=O)c(C)c32)c1 [Trametinib] (partner 0.02 µM)
How it was run: as §1

| Cell Line | relative viability ([1]; first compound 0.08 µM) | relative viability ([1]; first compound 0.253 µM) | relative viability ([1]; first compound 0.8 µM) | relative viability ([1]; first compound 2.53 µM) | relative viability ([1]; first compound 8 µM) | relative viability ([2]; first compound 0.02 µM) | relative viability ([2]; first compound 0.2 µM) | relative viability ([2]; first compound 0.6325 µM) | relative viability ([2]; first compound 2 µM) | relative viability ([3]; first compound 0.005 µM) | relative viability ([3]; first compound 0.01581 µM) | relative viability ([3]; first compound 0.05 µM) | relative viability ([3]; first compound 0.1581 µM) | relative viability ([3]; first compound 0.5 µM) | relative viability ([4]; first compound 0.08 µM) | relative viability ([4]; first compound 0.253 µM) | relative viability ([4]; first compound 0.8 µM) | relative viability ([4]; first compound 2.53 µM) | relative viability ([4]; first compound 8 µM) |
| --- | --- | --- | --- | --- | --- | --- | --- | --- | --- | --- | --- | --- | --- | --- | --- | --- | --- | --- | --- |
| NCI-H358 | 0.262 | 0.324 | 0.316 | 0.269 | 0.352 | 0.351 | 0.383 | 0.313 | 0.262 | 0.553 | 0.222 | 0.19 | 0.144 | 0.161 | 0.132 | 0.132 | 0.128 | 0.114 | 0.14 |
| NCI-H441 | 0.627 | 0.452 | 0.373 | 0.469 | 0.603 | 0.927 | 0.979 | 0.553 | 0.387 | 0.615 | 0.328 | 0.316 | 0.218 | 0.229 | 0.423 | 0.579 | 0.331 | 0.492 | 0.494 |
| NCI-H460 | 0.366 | 0.359 | 0.219 | 0.381 | 0.394 | 0.551 | 0.447 | 0.109 | 0.0647 | 0.367 | 0.198 | 0.024 | 0.0141 | 0.0076 | 0.178 | 0.195 | 0.114 | 0.366 | 0.132 |
| NCI-H520 | 0.336 | 0.3 | 0.235 | 0.251 | 0.366 | 0.525 | 0.677 | 0.46 | 0.442 | 1.2 | 0.784 | 0.544 | 0.477 | 0.165 | 0.787 | 0.707 | 0.642 | 0.691 | 0.699 |
| NCI-H596 | 0.391 | 0.378 | 0.413 | 0.37 | 0.411 | 0.863 | 0.676 | 0.643 | 0.508 | 0.59 | 0.325 | 0.284 | 0.174 | 0.165 | 0.892 | 0.827 |  | 0.981 | 0.875 |
| NCI-H647 | 0.49 | 0.422 | 0.435 | 0.419 | 0.735 | 0.504 | 0.495 | 0.544 | 0.399 | 0.51 | 0.218 | 0.117 | 0.0645 | 0.0592 | 0.577 | 0.591 | 0.358 | 0.472 | 0.61 |
| NCI-H650 | 0.839 | 0.889 | 0.785 | 0.915 | 0.912 | 0.406 | 0.339 | 0.328 | 0.319 | 0.517 | 0.318 | 0.306 | 0.288 | 0.178 | 1.03 | 1.03 | 0.955 | 1 | 1.07 |
| NCI-H661 | 0.421 | 0.412 | 0.358 | 0.514 | 0.461 | 0.274 |  | 0.284 | 0.287 | 0.651 | 0.313 | 0.303 | 0.283 | 0.251 | 0.635 | 0.608 | 0.487 | 0.669 | 0.654 |
| NCI-H727 | 0.46 | 0.252 | 0.381 | 0.404 | 0.349 | 0.532 | 0.472 | 0.489 | 0.495 | 0.27 | 0.291 | 0.212 | 0.234 | 0.148 | 0.362 | 0.414 | 0.378 | 0.417 | 0.35 |
| NCI-H838 | 0.519 | 0.466 | 0.377 | 0.426 | 0.603 | 0.544 | 0.609 | 0.364 | 0.245 | 0.274 | 0.208 | 0.19 | 0.246 | 0.114 | 0.608 | 0.559 | 0.456 | 0.527 | 0.584 |
| NCI-H1355 | 0.458 | 0.407 | 0.36 | 0.39 | 0.448 | 0.431 | 0.412 | 0.296 | 0.297 | 0.718 | 0.422 | 0.21 | 0.215 | 0.203 | 0.389 | 0.462 | 0.312 | 0.43 | 0.42 |
| NCI-H1395 | 0.705 | 0.603 | 0.872 | 0.527 | 0.879 | 0.426 | 0.458 | 0.428 | 0.494 | 1.05 | 0.474 | 0.366 | 0.498 | 0.271 | 0.966 | 0.999 | 0.939 | 0.949 | 1.17 |
| NCI-H1437 | 0.417 | 0.504 | 0.405 | 0.386 | 0.489 | 0.238 | 0.192 | 0.137 | 0.173 | 0.918 | 0.663 | 0.487 | 0.413 | 0.242 | 0.644 | 0.568 | 0.461 | 0.515 | 0.525 |
| NCI-H1651 | 0.751 | 0.672 | 0.416 | 0.621 | 0.599 | 0.395 | 0.334 | 0.265 | 0.341 | 0.778 | 0.564 | 0.385 | 0.223 | 0.109 | 0.797 | 0.844 | 0.733 | 0.801 | 0.845 |
| NCI-H1666 |  | 0.442 | 0.318 | 0.392 | 0.56 | 0.582 | 0.447 | 0.392 | 0.392 | 0.582 | 0.371 | 0.375 | 0.177 | 0.175 | 0.895 | 0.889 | 0.775 | 0.924 | 0.93 |
| NCI-H1734 | 0.466 | 0.498 | 0.413 | 0.48 | 0.515 | 0.374 | 0.436 | 0.379 | 0.313 | 0.635 | 0.344 | 0.239 | 0.202 | 0.149 | 0.673 | 0.725 | 0.575 | 0.693 | 0.832 |
| NCI-H1755 | 0.434 | 0.419 | 0.304 | 0.362 | 0.507 | 0.667 | 0.598 | 0.364 | 0.256 | 0.591 | 0.418 | 0.183 | 0.16 | 0.14 | 0.886 | 0.751 | 0.775 | 0.812 | 0.89 |
